From patent US20090030049A1, “MEDICAMENT FOR GENITAL HERPES” (ASTELLAS PHARMA INC., priority 2005, published 2009) come the findings set out here.

Structures are written as SMILES. Where “and” joins values, the source holds several entries; their conditions need not be identical. Equal entries are not always repeated.

The test system of this assay is HSV-2 strain G. The assay is described as follows: Therapeutic activity upon guinea pig HSV-2 genital herpes model (vaginal lesion score). In kind it is in vivo. The following applies: oral, twice a day, dose inhibiting 50% of average vaginal lesion score of placebo group at 9 days after infection, Hartley female guinea pig; for ED50: Human alphaherpesvirus 2, in Cavia porcellus, started after development of vaginal lesions (day 4 to 8 after infection), read-out: Lesion inhibitory activity (ED50; mg/kg) (4 to 8 days of administration after infection); for Comparative test (administration before the development of lesions) (ED50; mg/kg) (0 to 4 days of administration after infection): started 3 hours after HSV-2 infection until 4 days after infection. Here is the method:
In vivo activity of the pharmaceutical composition of the present invention was tested using an HSV-2 infected guinea pig vagina genital herpes model in reference to the method of L. Stanberry et al. (Journal of Infectious Disease, 1982, 146, 397-404). An absorbent cotton swab was impregnated with an HSV-2 virus suspension (HSV-2 strain G 1.25×10^5 PFU/ml) and inserted into the vagina of a Hartley female guinea pig (4 weeks of age) under diethyl ether anesthesia, thereby infecting it with HSV-2. Vagina lesions and general conditions caused by the HSV-2 infection were scored based on the following 6 steps and evaluated every day from the infected day (0 day) to 9 days after the infection.
Score 1: formation of approximately 1 or 2 small blisters which can be observed with the naked eye
Score 2: formation of blisters in 10 to 50% per vaginal visible area
Score 3: formation of blisters in 50 to 100% per vaginal visible area
Score 4: formation of ulcers in 10 to 50% per vaginal visible area
Score 5: formation of ulcers in 50 to 100% per vaginal visible area
Score 6: paralysis of hind legs or death
Only guinea pigs in which the vaginal lesion score was judged to be 1 or 2 and development of lesions therefore was found were selected after the development of vaginal lesions by HSV-2 infection, namely 4 days after the infection, their grouping was carried out in such a manner that average values of the scores became even, and then administration of each compound to be tested was started. Each compound to be tested was made into a methyl cellulose suspension and orally administered twice a day for 5 days of from the 4th day to 8th day after the infection. Additionally, in order to compare degrees of the therapeutic effect due to difference in the administration starting period, a comparative test was simultaneously carried out in which the administration was started before the development of vaginal lesions (3 hours after the HSV-2 infection) and the administration was carried out in the same manner until 4 days after the infection. Each test was carried out using 10 animals per group of the guinea pigs and using VCV as the comparative compound.
Regarding the average vaginal lesion score of 9 days after the HSV-2 infection, the dose of each compound to be tested which inhibits 50% of the score of the placebo administration group (ED50 value; mg/kg, twice a day) was calculated, with the results shown in the following table.

Usually ED50 stands for the dose at which the effect has come halfway, by size or by number of responders. Regarding `Cc1ccc(N(CC(=O)Nc2ccc(-c3cocn3)cc2)C(=O)C2CCS(=O)(=O)CC2)cc1` [Preparation 2, N-(4-methylphenyl)-N-(2-{[4-(1,3-oxazol-4-yl)phenyl]amino}-2-oxoethyl)tetrahydro-2H-thiopyran-4-carboxamide 1,1-dioxide], the ED50 came out at 3.1 mg/kg and the “Comparative test (administration before the development of lesions) (ED50; mg/kg) (0 to 4 days of administration after infection)” value (“Comparative test” for short) was 1.3 mg/kg.
Take `CC(C)[C@H](N)C(=O)OCCOCn1cnc2c(=O)[nH]c(N)nc21` [VCV, valacyclovir, reference compound]: the ED50 was at least 300 mg/kg; the “Comparative test” value was 117 mg/kg and 50 mg/kg.
For `Cc1cccc(C)c1N(CC(=O)Nc1ccc(-c2ncon2)cc1)C(=O)C1CCS(=O)(=O)CC1` [Preparation 27, N-(2,6-dimethylphenyl)-N-(2-{[4-(1,2,4-oxadiazol-3-yl)phenyl]amino}-2-oxoethyl)tetrahydro-2H-thiopyran-4-carboxamide 1,1-dioxide], the ED50 is 2.5 mg/kg and the “Comparative test” value is 1.2 mg/kg.
